According to US20230257373A1, “QUORUM SENSING INHIBITORS AND METHODS OF USE” (priority 2020, published 2023):
Like-named read-outs stand apart in the source and are kept apart here.

Columns and labels:
V. campbellii LuxR = target: T1, V. campbellii LuxR (Vibrio harveyi, UniProt P21308); experiment: E. coli dual-color bioassay (pKM699 LuxR, pJV064 reporter); type: cell-based
T1 construct: expressed in transfected cells; host or cells: E. coli DH10B with pKM699 and reporter pJV064
Excerpt: Previously, we developed a bioassay that consists of a dual-color fluorescent reporter plasmid that reports both LuxR activities: the luxCDABE promoter is activated by LuxR and drives expression of gfp, and the VIBHAR_05222 promoter is repressed by LuxR and drives expression of mCherry (van Kessel et al., 2013b) (FIG. 2A). We used this reporter plasmid in an E. coli strain that also contains a plasmid expressing LuxR from its native promoter.
A bioassay was developed to monitor LuxR function that consists of a dual-color reporter plasmid (pJV064) that reports both activities: the luxCDABE promoter is activated by LuxR and drives expression of gfp, and the 05222 promoter is repressed by LuxR and drives expression of mCherry (van Kessel, Ulrich et al. 2013). This reporter plasmid was used in an E. coli strain that also contains a plasmid (pKM699) expressing LuxR from its native promoter. E. coli cultures containing these two plasmids were grown at 30° C. in LB medium with chloramphenicol (10 μg/ml) and tetracycline (10 μg/ml) to select for the two plasmids. Compounds were added to the cultures at a range of concentrations, and the cultures were incubated for 16 hours shaking at 30° C.
The dual-promoter fluorescence reporter assays were performed using E. coli strain DH10B containing two plasmids: 1) plasmid pJV064 containing the PluxC fused to GFP and P05222fused to mCherry to assess LuxR transcriptional regulation, and 2) plasmid pKM699 expressing V. campbellii luxR under control of its native promoter or empty vector pLAFR2.

SmcR [1] = target: T2, SmcR (Vibrio vulnificus, UniProt Q9L8G8); experiment: E. coli bioassay expressing SmcR (IPTG-inducible plasmid); type: cell-based, V. vulnificus
Excerpt: (§1) We hypothesized that there were several possible reasons for the observed difference in PTSP inhibition in the various Vibrio species, including but not limited to: 1) differences in LuxR-inhibitor interaction(s), 2) differences in diffusion of the inhibitor across the membranes, or 3) stability of the inhibitor in the cell and/or cell culture. To examine PTSP activity in a common strain background, we cloned the luxR gene from each Vibrio species into a plasmid under control of an IPTG-inducible promoter and assayed the effect of PTSP against these proteins in the E. coli bioassay. […] We conclude that the differences in PTSP activity in Vibrio species is due to differences in interaction between PTSP and the LuxR-type protein in each Vibrio.
We therefore sought to determine if any of the four residues that differ between HapR and LuxR/SmcR in the putative ligand binding pocket are sufficient to render SmcR insensitive to PTSP. First, we introduced substitutions in SmcR to mimic the amino acid sequence of HapR: F75Y, I96L, […], and C170F. […] Next, we introduced single substitutions in HapR to mimic the amino acid present in SmcR: Y76F, L97I, I141V, and F171C.
(§2) In E. coli assays expressing the five different LuxR-type proteins (luxR, smcR, opaR, vcpR, hapR), slight changes to the protocol were implemented. The luxR genes were cloned under control of the IPTG-inducible Ptac promoter in plasmid pMMB67EH-kanR. […] Strains expressing hapR or smcR required 50 μM IPTG to observe activation of the GFP reporter; IPTG was not added to strains expressing luxR, vcpR, or opaR.

VcpR = experiment: E. coli bioassay expressing VcpR (IPTG-inducible plasmid); type: cell-based, V. coralliilyticus; settings: 25 μM PTSP
Excerpt: as §1, §2

SmcR [2] = target: T2, SmcR; experiment: EMSA DNA binding activity of SmcR; type: biochemical, V. vulnificus; settings: saturating concentrations
Method: We noted that Qstatin and PTSP are both predicted to bind in the putative ligand binding pocket of SmcR. It is currently unknown how Qstatin allosterically affects DNA binding through its interactions in the ligand binding domain. […] We therefore also assessed the effect of sulfonamide PTSP on the DNA binding activity of LuxR and SmcR in vitro. […] (Kim et al., 2018).
SmcR and LuxR were purified as described previously. EMSAs were conducted as described previously using oligonucleotides corresponding to the luxC and vvpE promoter sequences. ITC analysis was conducted using purified LuxR or His-tagged SmcR, each in gel-filtration buffer (25 mM Tris pH 7.5, 300 mM NaCl, 0.5 mM EDTA, 1 mM DTT, 2% DMSO). All molecules analyzed were diluted in the same buffer. The samples were degassed for 10 min by vacuum aspiration. Titrations were performed on a Nano-ITC (TA Instruments). […] Thermograms were analyzed using NanoAnalyze software with the independent binding model.

V. campbellii = experiment: Growth of V. campbellii with inhibitor; type: cell-based; settings: high concentrations
Excerpt: (§3) Many sulfonamide-containing compounds are known to target the folate synthesis pathway in bacteria and inhibit growth (bacteriostatic), and thus these “sulfa drugs” have been used as broad-spectrum antibiotics for decades (Hammoudeh et al., 2013, Roland et al., 1979). […] We also tested the stability of the inhibitors in bacterial cultures and the timing of the inhibitory effect.

V. vulnificus = experiment: Growth of V. vulnificus with inhibitor; type: cell-based; settings: high concentrations
Excerpt: as §3

[3] = test system: PluxC-gfp reporter in V. campbellii; experiment: PluxC-gfp reporter in V. campbellii strains; settings: Vibrio campbellii
[4] = test system: V. vulnificus protease activity; experiment: Protease assay (azocasein) in V. vulnificus; settings: for IC50: Vibrio vulnificus
[5] = test system: V. campbellii protease activity; experiment: Protease assay (azocasein) in V. campbellii; settings: 2.5 μM PTSP vs DMSO
Vibrio strains = experiment: luxCDABE reporter across five Vibrio species; settings: each Vibrio strain except V. cholerae
[6] = test system: PluxC-gfp reporter in V. coralliilyticus; experiment: PluxC-gfp reporter in V. coralliilyticus strains

## O=S(=O)(c1cccs1)n1ccc(-c2ccccc2)n1 [Compound 10B]
V. campbellii LuxR; GFP and mCherry reporters
  Inhibition of LuxR in the E. coli bioassay (in words): most potent
V. campbellii LuxR; addition to the culture
  Time after addition at which GFP production was blocked: 120 min
V. campbellii LuxR; longest timepoint tested
  Duration for which block of GFP production was maintained: ≥ 16 h
V. campbellii LuxR; read-out: IC50 in the bioassay (approximate)
  IC50: 1000 to 2000 nM
SmcR [1]; 25 μM PTSP
  Inhibition of SmcR in E. coli bioassay: inhibited
SmcR [1]; SmcR substitution C170F
  Inhibition of SmcR C170F: abolished PTSP inhibition
SmcR [1]; SmcR substitution F75Y
  Inhibition of SmcR F75Y: abolished PTSP inhibition
SmcR [1]; SmcR substitution I96L
  Inhibition of SmcR I96L: not significantly different from wild-type SmcR
SmcR [1]; SmcR substitution V1401
  Inhibition of SmcR V1401: not significantly different from wild-type SmcR
VcpR
  Inhibition of VcpR in E. coli bioassay: inhibited
SmcR [2]
  DNA binding to SmcR: did not alter DNA binding
V. campbellii
  Growth rate or growth yield: did not alter growth rate or growth yield
V. vulnificus
  Growth rate or growth yield: did not alter growth rate or growth yield
[3]; ATCC25920, read-out: Inhibition (IC50) of the PluxC-gfp reporter, Vcamp ATCC 25920
  IC50: 30 nM
[3]; read-out: IC50, V. campbellii BB120, luxCDABE
  IC50: 140 nM
[3]; read-out: IC50, V. campbellii, b235
  IC50: 350 nM
[3]; read-out: Inhibition (IC50) of the PluxC-gfp reporter, Vcamp HY01
  IC50: 100 nM
[4]; 2.5 μM PTSP vs DMSO, V. vulnificus
  Protease activity of wild-type strain: significantly reduced protease activity
[4]; ATCC27562, read-out: IC50 of protease inhibition, V. vulnificus ATCC 27562
  IC50: 6.8 nM
[4]; read-out: IC50 of protease inhibition, V. vulnificus CMPC6
  IC50: 78.1 nM
[4]; read-out: IC50 of protease inhibition, V. vulnificus YJ016
  IC50: 18.3 nM
[5]
  Protease activity of wild-type strain: significantly reduced protease activity
Vibrio strains
  IC50 values lower than Qstatin: ~10 fold
[6]; read-out: IC50, V. coralliilyticus OCN008, luxCDABE reporter plasmid
  IC50: 2200 nM
[6]; read-out: Inhibition (IC50) of the PluxC-gfp reporter, Vcoral OCN 008
  IC50: 1430 nM
[6]; read-out: Inhibition (IC50) of the PluxC-gfp reporter, Vcoral OCN 014
  IC50: 2370 nM
